These are literature values, as cited in patent US7579326B2, “Gene switch systems employing regulators with decreased dimerization” (Genetronics, Inc., priority 2000, dated 2009).

The conditions of series [1]: rats.
For series [2], the target named is palindromic 17-mer GAL-4 DNA binding site.

In the case of `CC#C[C@]1(O)CC[C@H]2[C@@H]3CCC4=CC(=O)CCC4=C3[C@@H](c3ccc(N(C)C)cc3)C[C@@]21C` [MFP, 11β-(4-dimethylaminophenyl)-17β-hydroxy-17α-propynyl-4,9-estradiene-3-one], the half-life in series [1] was 1 h.

“GAL-4, residues 1-100: yeast GAL-4 DNA binding domain fragment, residues 1-100”: in series [2], the Kd is 3 nM.

The half-life is the time in which the quantity being followed falls by half. A word on the Kd: it is the concentration at which binding is half-saturated.
